Legend:
Type in all cases: in vivo, human
[1] = test system: mild to moderate AD patients; assay: Test Example 1: phase II placebo-controlled trial, ADAS-cog change from baseline
Excerpt: (§1) Test Example 1 Multicenter Randomized Double-Blind Phase II Placebo-Controlled Trial for Assessing Effectiveness and Safety of Compound a in Mild to Moderate AD Patients
(§2) Patients were screened in a period from 42 days before treatment assignment to the assignment based on the following selection criteria. Patients matched (484 patients) were randomly divided into the following 3 groups and the trial was started.
(§3) • Patients who were probable AD and are 55 years old or older and 85 years old or younger at the time of obtaining consent of screening. • Patients with an MMSE score of 12 to 22 at the time of screening • Patients with a Modified Hachinski Ischemia Scale score of 4 or less • Patients who have been treated with a donepezil hydrochloride or rivastigmine transdermal system for at least 4 months before the baseline and with a stable dose thereof for 3 months before the baseline. • In the case of patients who have received memantine in addition to being treated with a donepezil hydrochloride or rivastigmine transdermal system, patients who have been treated with memantine for at least 4 months before the baseline and with a stable dose thereof for 3 months before the baseline. • Patients whose brain MRI or CT results match AD at the time of screening Organization of Groups: (1) High dose group: 224 mg of a test compound (160 mg in terms of Compound A) was orally administered once a day for 4 weeks and then 448 mg of a test compound (320 mg in terms of Compound A) was orally administered once a day for 48 weeks (158 patients) (2) Low dose group: 224 mg of a test compound (160 mg in terms of Compound A) was orally administered once a day for 52 weeks (166 patients) (3) Placebo group: placebo was orally administered once a day for 52 weeks (158 patients) Method of assessment: (1) ADAS-cog
(§4) The ADAS-cog score of the subject was evaluated at the baseline (before administration of investigational drug on the first day of administration) and after 52 weeks and the cognitive function was assessed based on the change from the baseline.
(§5) Changes in the ADAS-cog score and the ADCS-ADL score after 52 weeks from the baseline were compared between the high dose group and the placebo group, and between the low dose group and the placebo group based on the Mixed-effect Models for Repeated Measures (MMRM) with a significance level of 5%. For models, fixed effects included the treatment groups and time, while covariates included age, the baseline of ADAS-cog or ADCS-ADL, the baseline of MMSE and ApoE4 genotype (positive/negative). The interaction between time and the treatment groups and the interaction between the baseline of ADAS-cog and time were also included.

[2] = test system: mild to moderate AD patients; assay: Test Example 1: phase II placebo-controlled trial, ADCS-ADL change from baseline
Excerpt: as §1, §2, §3
(§6) The ADCS-ADL score of the subject was evaluated at the baseline (before administration of investigational drug on the first day of administration) and after 52 weeks and the level of impairment was assessed based on the change from the baseline.
as §5

[3] = test system: mild to moderate AD patients; assay: Test Example 2: early phase II placebo-controlled trial, ADAS-cog change from baseline; details: for Change in ADAS-cog from baseline at week 52, least square means (95% confidence interval) / Change in ADAS-cog from baseline at week 52, difference from placebo group (95% confidence interval): MMSE 22 or less at screening
Excerpt: (§7) Test Example 2 Multicenter Randomized Double-Blind Early Phase II Placebo-Controlled Trial for Assessing Effectiveness and Safety of Compound a in Mild to Moderate AD Patients
(§8) Patients were screened in a period from 28 days before treatment assignment to the assignment based on the following selection criteria. Patients matched (373 patients) were randomly divided into the following 2 groups and the trial was started.
(§9) • Patients who were probable AD and over or 50 years old or older and 90 years old or younger at the time of obtaining consent of screening. • Patients with an MMSE score of 15 to 24 at the time of screening • Patients with a Modified Hachinski Ischemia Scale score of 4 or less • Patients who have been treated with a donepezil hydrochloride for at least 6 months before the baseline and with a stable dose thereof for 3 months before the baseline. • Patients whose brain MRI or CT results match AD at the time of screening Organization of Groups: (1) Active drug group: 224 mg of a test compound (160 mg in terms of Compound A) was orally administered once a day for 52 weeks (176 patients) (2) Placebo group: placebo was orally administered once a day for 52 weeks (178 patients) Method of assessment: (1) ADAS-cog
as §4
(§10) Changes in the ADAS-cog score and the ADCS-ADL score after 52 weeks from the baseline were compared between the high dose group and the placebo group, and between the low dose group and the placebo group based on MMRM with a significance level of 5%. For models, fixed effects included the treatment groups and time, while covariates included the baseline of ADAS-cog or ADCS-ADL and the baseline of MMSE. The interaction between time and the treatment groups and the interaction between the baseline of ADAS-cog and time were also included. For the period from clinical diagnosis, the first day of administration of donepezil hydrochloride which was combined with Compound A was defined as the time of clinical diagnosis. Furthermore, to match the conditions with those of Test Example 1, the subject was patients with an MMSE score of 22 or less at the time of screening.

[4] = test system: mild to moderate AD patients; assay: Test Example 2: early phase II placebo-controlled trial, ADCS-ADL change from baseline; details: for Change in ADCS-ADL from baseline at week 52, least square means (95% confidence interval) / Change in ADCS-ADL from baseline at week 52, difference from placebo group (95% confidence interval): MMSE 22 or less at screening
Excerpt: as §7, §8, §9, §6, §10

[5] = high dose group, more than 2.6 years from clinical diagnosis
[6] = high dose group, within 2.8 years from clinical diagnosis
[7] = high dose group, within 3 years from clinical diagnosis
[8] = high dose group, within 3.2 years from clinical diagnosis
[9] = high dose group, within 3.4 years from clinical diagnosis
[10] = high dose group, within 3.6 years from clinical diagnosis
[11] = high dose group, within 3.8 years from clinical diagnosis
[12] = high dose group, within 4.0 years from clinical diagnosis
[13] = high dose group, within 5.0 years from clinical diagnosis
[14] = high dose group, within 6.0 years from clinical diagnosis
[15] = low dose group (160 mg in terms of Compound A, oral once a day, 52 weeks), within 2.6 years from clinical diagnosis
[16] = low dose group (160 mg), more than 2.6 years from clinical diagnosis
[17] = low dose group (160 mg), total (all periods from clinical diagnosis)
[18] = low dose group (160 mg), within 2.6 years from clinical diagnosis
[19] = high dose group, total (all periods from clinical diagnosis)
[20] = low dose group (160 mg), total (all periods)

OC1CN(CCCOCCc2ccc3sccc3c2)C1 [Compound A, 1-(3-(2-(1-benzothiophen-5-yl)ethoxy)propyl)azetidin-3-ol]
Changes in ADAS-cog from the baseline at week 52, Compound A group versus placebo group (in words) ([1]; Test Example 1, all subject patients): no statistically significant difference | Changes in ADAS-cog from the baseline at week 52, Compound A high dose group versus placebo group (in words) ([1]; Test Example 1, high dose group, patients within 2.6 years from clinical diagnosis of AD): statistically significant difference | Difference in ADAS-cog change between high dose group and placebo group, compared by periods from clinical diagnosis (in words) ([1]; Test Example 1, high dose group, periods 2.5 to 6 years from clinical diagnosis of AD): larger in patients whose period was shorter | Change in the ADAS-cog score, Compound A low dose group versus placebo group (in words) ([1]; Test Example 1, low dose group (160 mg), week 52): tended to be smaller than that in the placebo group | Change in ADAS-cog from baseline at week 52, least square means (95% confidence interval) ([1]; high dose group (160 mg 4 weeks then 320 mg 48 weeks in terms of Compound A, oral once a day), within 2.5 years from clinical diagnosis): 5.6 | Change in ADAS-cog from baseline at week 52, difference from placebo group (95% confidence interval) ([1]; high dose group (160 mg 4 weeks then 320 mg 48 weeks, oral once a day), within 2.5 years from clinical diagnosis): −3.3 | Change in ADAS-cog from baseline at week 52, difference from placebo group (95% confidence interval) [1, 5]: 1.8(−1.0, 4.6) | Change in ADAS-cog from baseline at week 52, least square means (95% confidence interval) [1, 5]: 8.4(6.3, 10.5) | Change in ADAS-cog from baseline at week 52, difference from placebo group (95% confidence interval) [1, 6]: −2.5 | Change in ADAS-cog from baseline at week 52, least square means (95% confidence interval) [1, 6]: 6.2 | Change in ADAS-cog from baseline at week 52, difference from placebo group (95% confidence interval) [1, 7]: −2.2 | Change in ADAS-cog from baseline at week 52, least square means (95% confidence interval) [1, 7]: 6.1 | Change in ADAS-cog from baseline at week 52, difference from placebo group (95% confidence interval) [1, 8]: −2.0 | Change in ADAS-cog from baseline at week 52, least square means (95% confidence interval) [1, 8]: 6.4 | Change in ADAS-cog from baseline at week 52, difference from placebo group (95% confidence interval) [1, 9]: −1.8 | Change in ADAS-cog from baseline at week 52, least square means (95% confidence interval) [1, 9]: 6.4 | Change in ADAS-cog from baseline at week 52, difference from placebo group (95% confidence interval) [1, 10]: −1.8 | Change in ADAS-cog from baseline at week 52, least square means (95% confidence interval) [1, 10]: 6.7 | Change in ADAS-cog from baseline at week 52, difference from placebo group (95% confidence interval) [1, 11]: −2.1 | Change in ADAS-cog from baseline at week 52, least square means (95% confidence interval) [1, 11]: 6.5 | Change in ADAS-cog from baseline at week 52, difference from placebo group (95% confidence interval) [1, 12]: −1.7 | Change in ADAS-cog from baseline at week 52, least square means (95% confidence interval) [1, 12]: 6.6 | Change in ADAS-cog from baseline at week 52, difference from placebo group (95% confidence interval) [1, 13]: −1.9 | Change in ADAS-cog from baseline at week 52, least square means (95% confidence interval) [1, 13]: 6.5 | Change in ADAS-cog from baseline at week 52, difference from placebo group (95% confidence interval) [1, 14]: −0.9 | Change in ADAS-cog from baseline at week 52, least square means (95% confidence interval) [1, 14]: 7.2 | Change in ADAS-cog from baseline at week 52, least square means (95% confidence interval) [1, 15]: 8.1 (6.0, 10.2) | Change in ADAS-cog from baseline at week 52, difference from placebo group (95% confidence interval) [1, 16]: 0.1 (−2.5, 2.8) | Change in ADAS-cog from baseline at week 52, least square means (95% confidence interval) [1, 16]: 6.8 (4.8, 8.7) | Change in ADAS-cog from baseline at week 52, difference from placebo group (95% confidence interval) [1, 17]: −0.5 (−2.4, 1.4) | Change in ADAS-cog from baseline at week 52, least square means (95% confidence interval) [1, 17]: 7.4 (6.0, 8.9) | Change in ADAS-cog from baseline at week 52, difference from placebo group (95% confidence interval) [1, 18]: −0.9 (−3.6, 1.8) | Reduction in ADCS-ADL from the baseline at week 52 (in words) ([2]; Test Example 1, high dose group): tended to be suppressed | Tendency to suppress reduction in ADCS-ADL, patients within 2.6 years versus all patients (in words) ([2]; Test Example 1, high dose group, week 52): more remarkable | Change in ADCS-ADL from baseline at week 52, least square means (95% confidence interval) ([2]; high dose group (160 mg 4 weeks then 320 mg 48 weeks, oral once a day), within 2.6 years from clinical diagnosis): −8.6(−11.2, −5.9) | Change in ADCS-ADL from baseline at week 52, difference from placebo group (95% confidence interval) [2, 5]: −0.9 (−4.7, 2.8) | Change in ADCS-ADL from baseline at week 52, least square means (95% confidence interval) [2, 5]: −11.6(−14.5, −8.8) | Change in ADCS-ADL from baseline at week 52, difference from placebo group (95% confidence interval) [2, 19]: 1.2(−1.3, 3.8) | Change in ADCS-ADL from baseline at week 52, least square means (95% confidence interval) [2, 19]: −10.1(−12.0, −8.1) | Change in ADCS-ADL from baseline at week 52, difference from placebo group (95% confidence interval) ([2]; high dose group, within 2.6 years from clinical diagnosis): 3.1(−0.4, 6.6) | Change in ADCS-ADL from baseline at week 52, least square means (95% confidence interval) [2, 15]: −11.7(−14.5, −9.0) | Change in ADCS-ADL from baseline at week 52, difference from placebo group (95% confidence interval) [2, 16]: 0.3(−3.2, 3.8) | Change in ADCS-ADL from baseline at week 52, least square means (95% confidence interval) [2, 16]: −10.4(−13.0, −7.8) | Change in ADCS-ADL from baseline at week 52, difference from placebo group (95% confidence interval) [2, 17]: 0.2(−2.3, 2.7) | Change in ADCS-ADL from baseline at week 52, least square means (95% confidence interval) [2, 17]: −11.0(−13.0, −9.1) | Change in ADCS-ADL from baseline at week 52, difference from placebo group (95% confidence interval) [2, 18]: 0.0(−3.6, 3.6) | Changes in ADAS-cog from the baseline at week 52, Compound A group versus placebo group (in words) ([3]; Test Example 2, all subject patients): no statistically significant difference | Changes in ADAS-cog from the baseline at week 52, Compound A low dose group versus placebo group (in words) ([3]; Test Example 2, low dose group (160 mg), within 2.6 years from clinical diagnosis of AD and MMSE score of 22 or less at screening): statistically significant difference | Change in ADAS-cog from baseline at week 52, least square means (95% confidence interval) [3, 15]: 1.3(−0.3, 4.7) | Change in ADAS-cog from baseline at week 52, difference from placebo group (95% confidence interval) [3, 16]: 1.7(−1.3, 4.7) | Change in ADAS-cog from baseline at week 52, least square means (95% confidence interval) [3, 16]: 3.0(0.8, 5.3) | Change in ADAS-cog from baseline at week 52, difference from placebo group (95% confidence interval) [3, 20]: −1.2(−3.0, 0.5) | Change in ADAS-cog from baseline at week 52, least square means (95% confidence interval) [3, 20]: 1.9(0.5, 3.2) | Change in ADAS-cog from baseline at week 52, difference from placebo group (95% confidence interval) [3, 18]: −2.6(−4.8, −0.5) | Reduction in ADCS-ADL from the baseline at week 52 (in words) ([4]; Test Example 2, low dose group (160 mg)): tended to be suppressed | Tendency to suppress reduction in ADCS-ADL, patients within 2.6 years versus all patients (in words) ([4]; Test Example 2, low dose group (160 mg), week 52): more remarkable | Change in ADCS-ADL from baseline at week 52, least square means (95% confidence interval) [4, 15]: −5.5(−7.8, −3.2) | Change in ADCS-ADL from baseline at week 52, difference from placebo group (95% confidence interval) [4, 16]: −3.5(−7.8, 0.8) | Change in ADCS-ADL from baseline at week 52, least square means (95% confidence interval) [4, 16]: −7.5(−10.8, −4.3) | Change in ADCS-ADL from baseline at week 52, difference from placebo group (95% confidence interval) [4, 20]: 0.5(−2.0, 3.0) | Change in ADCS-ADL from baseline at week 52, least square means (95% confidence interval) [4, 20]: −6.2(−8,1, −4.3) | Change in ADCS-ADL from baseline at week 52, difference from placebo group (95% confidence interval) [4, 18]: 2.6(−0.5, 5.7)
